In patent US20060292158A1, “Method for the treatment of cancer using a novel pharmaceutical composition containing at least one dolastatin 10 derivative” (priority 2004, published 2006):

Key:
[1] = Maximum tolerated dose (neither lethality nor more than 20% body weight loss) in mice; conditions: BALB/c nu/nu (athymic nude), mouse, in vivo, dose with neither lethality nor more than 20% body weight loss
Text: The in vivo evaluation procedure for anticancer drugs was based on the methods described by Plowman, et al. (1997) for xenograft models. See, “Anticancer Drug Development Guide: Preclinical Screening, Clinical Trials, and Approval, Teicher B (ed) pp. 101-125, specifically Chap. 6, “Human Tumor Xenograft Models in NCI Drug Development”, hereby incorporated by reference.
See, “Anticancer Drug Development Guide: Preclinical Screening, Clinical Trials, and Approval, Teicher B (ed) pp. 101-125, specifically Chap. 6, “Human Tumor Xenograft Models in NCI Drug Development”, hereby incorporated by reference.
The in vivo evaluation procedure for anticancer drugs was based on the methods described by Plowman, et al. (1997) for xenograft models. See, “Anticancer Drug Development Guide: Preclinical Screening, Clinical Trials, and Approval, Teicher B (ed) pp. 101-125, specifically Chap.

[2] = test system: NCI-H460 human large cell lung carcinoma xenograft; assay: Antitumor activity in NCI-H460 subcutaneous xenograft in athymic nude mice, combination with cisplatin (Example 4); format: in vivo; conditions: day 12
Method: The NCI-H460 human large cell lung carcinoma cell line was purchased from American Type Culture Collection (MD, U.S.A.). The cells were cultured in RPMI-1640 medium (cat. # R8758, lot 12K2310, exp 01/03; lot 82K2497, exp 08/03; Sigma-Aldrich corporation, MO, U.S.A.) supplemented with 10% (v/v) fetal bovine serum (cat. # 047115, lot # 31300124; Roche Diagnostics KK, Tokyo, Japan).
Sixty of 5-week-old male athymic nude mice (BALB/c nu/nu) were purchased from Charles River Japan, Inc. (Yokohama, Japan). All mice were kept for 8 days in the animal facility of Kamakura Research Laboratories of Chugai Pharmaceutical Co., Ltd. before subjection to the experiment.
The title compound was synthesized at Kamakura Research Laboratories of Chugai Pharmaceutical Co., Ltd. CDDP (Randa™, lot # 924150) was obtained from Nippon Kayaku Co., Ltd. (Tokyo, Japan). The title compound was dissolved in dimethyl sulfoxide (DMSO) and diluted into 2.5 % DMSO solution with saline (for Injection; Ohtsuka Pharmaceutical Industry Co., Ltd., Tokushima, Japan) at the date of administration. CDDP was diluted with saline at the date of administration.
The in vivo evaluation procedure for anticancer drugs was based on the methods described by Plowman, et al. (1997) for xenograft models. See, “Anticancer Drug Development Guide: Preclinical Screening, Clinical Trials, and Approval, Teicher B (ed) pp. 101-125, specifically Chap. 6, “Human Tumor Xenograft Models in NCI Drug Development”, hereby incorporated by reference. A single cell suspension of NCI-H460 (5.6×10^6 cells per mouse) was inoculated subcutaneously into the right flank of each mouse. The tumor volume was estimated by using the equation ab^2/2, where a and b represent tumor length and width, respectively. Mice bearing tumors of between 150 and 245 mm^3 were selected on day 7 after tumor inoculation and were randomly divided into 8 groups, consisting of 5 mice each. Mean tumor volume and body weight of the selected mice were 187 mm3 and 24.3 g, respectively. Drug administration was initiated after mice were divided into groups. The title compound (2 mg/kg or 3 mg/kg), CDDP (5 mg/kg or 6.7 mg/kg) and each vehicle were administered intravenously. Tumor volume and body weight of each mouse were measured twice a week. […] Tumor growth inhibition was calculated using the equation (1-ΔT/ΔC)×100, where ΔT represents the difference in tumor volume from the initial treatment date of the treated group and ΔC represents the difference in tumor volume from the initial treatment date of the vehicle group.

[3] = test system: MAXF-401 human breast carcinoma xenograft; assay: Antitumor activity in MAXF-401 subcutaneous xenograft in athymic nude mice, combination with capecitabine (Example 3); format: in vivo; conditions: monotherapy 3, 4 or 6 mg/kg; one week after final injection; 2.5% DMSO control
Method: The MAXF-401 human breast carcinoma cell line was obtained from Prof Fiebig (University of Freiburg, Germany). This cell line was maintained in mice; the tumor fragments were implanted subcutaneously and serially passaged in mice prior to use.
One hundred (100) 5-week-old female athymic nude mice (BALB/c nu/nu) were purchased from Charles River Japan, Inc. (Yokohama, Japan). The mice were housed in an air-conditioned room (temperature 22±2° C., relative humidity 55±10%) under 12 h light/dark cycles. The mice were given sterilized CE-2 and tap water with 25μg/mL gentamycin ad libitum. […]
The in vivo evaluation procedure for anticancer drugs was based on the methods described by Plowman, et al. (1997) for xenograft models. […] The tumor volume and body weight of each mouse were measured twice a week. […] One week after the final injection, tumor growth inhibition (TGI) was calculated using the formula (1-T/C)×100 (%), where T (treated group) and C (control group) represent the mean tumor volume change. ED50 values were calculated from values of tumor growth inhibition on day 21 using the XL fit program. […]
Packaged software (SAS preclinical package version 5.0,SAS Institute Japan, Ltd.) was used for the statistical analysis. […] ED50s were calculated from values of tumor growth inhibition percentage using XL fit program #509 (MS Excel Add Version 3.0.5 Build -In: XLfit3 12, ID Business Solutions Ltd.)

## CC[C@H](C)[C@@H]([C@@H](CC(=O)N1CCC[C@H]1[C@H](SC)[C@@H](C)C(=O)N(C)CCc1cccc(O)c1)OC)N(C)C(=O)[C@@H](NC(=O)[C@H](C(C)C)N(C)C)C(C)C [compound of formula (I-A), N-[1-({1-sec-Butyl-4-[2-(2-{[2-(3-hydroxy-phenyl)-ethyl]-methyl-carbamoyl}-1-methylsulfanyl-propyl)-pyrrolidin-1-yl]-2-methoxy-4-oxo-butyl}-methyl-carbamoyl)-2-methyl-propyl]-2-dimethylamino-3-methyl-butyramide]
[1]
  MTD: 6 mg/kg
[2]; 2 mg/kg (1/3 MTD) i.v. weekly x3
  reduction of tumor growth: 45%
[2]; 3 mg/kg (1/2 MTD) i.v. weekly x3
  reduction of tumor growth: 93%
[3]
  volume of tumor in comparison with control: decreased significantly
